We go through two compounds from PMC10192418, “High-affinity peptides developed against calprotectin and their application as synthetic ligands in diagnostic assays” (Nature Communications, 2023).

Data set [1] addresses T1, calprotectin tetramer (recombinant B-RCAL, His6-linker-S100A9-linker-S100A8) (Homo sapiens, UniProt P05109).
T1 construct: we used the recombinant protein without removing the His-tag or cleaving the 8-amino acid linker between the two proteins; co-authors' company
T1 sequence (P05109 with tags, fused parts or gaps): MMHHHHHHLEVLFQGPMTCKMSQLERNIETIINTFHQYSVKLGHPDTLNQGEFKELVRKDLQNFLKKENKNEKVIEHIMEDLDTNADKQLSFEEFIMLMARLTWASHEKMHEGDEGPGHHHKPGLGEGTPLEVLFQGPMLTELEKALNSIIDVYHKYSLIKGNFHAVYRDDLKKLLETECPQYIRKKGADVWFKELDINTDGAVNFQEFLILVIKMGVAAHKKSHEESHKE
Briefly: Fluorescence polarization (FP) binding to recombinant calprotectin B-RCAL tetramer in presence of CaCl2. As to the method: Calprotectin was serially diluted in 20 mM HEPES, 100 mM NaCl, 2 mM CaCl2, pH 7.5, and 1 mM DTT with 0.01% (v/v) Tween-20. Volumes of 16 μL of protein were added to 4 μL of fluorescent peptide (20 nM final concentration) in black 384-well microtiter plates. Fluorescence anisotropy was measured on a microwell plate reader (Infinite M200Pro, Tecan) with filters for excitation at 485 nm and emission at 535 nm. The dissociation constant (Kd) was calculated using a following Eq. (1) using Prism 5 software (GraphPad):1 A=Af+Ab−Af×LT+KD+PT−LT+KD+PT^2−4LTPT/2LT where A is anisotropy, Af and Ab are the anisotropy values for free and bound ligands, respectively. [L]T is the concentration of the total fluorescent ligand and [P]T the concentration of the protein.

In data set [2] the target is T2, native calprotectin (tetramer, + CaCl2) (Homo sapiens, UniProt P05109+P06702).
T2 construct: Native calprotectin is derived from granulocytes; tissue gift from Thomas Vogl, Institute of Immunology, University of Muenster; host or cells: granulocytes
T2 sequence (P05109 1-93): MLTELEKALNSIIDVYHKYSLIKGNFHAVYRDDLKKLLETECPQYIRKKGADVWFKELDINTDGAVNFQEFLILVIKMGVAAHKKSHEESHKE
T2 sequence (P06702 2-114 limits assumed): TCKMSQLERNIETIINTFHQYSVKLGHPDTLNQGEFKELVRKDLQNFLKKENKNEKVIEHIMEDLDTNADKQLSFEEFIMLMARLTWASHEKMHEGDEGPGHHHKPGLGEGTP
The data set can be described thus: FP binding to native calprotectin derived from granulocytes. As to the method:
Fluorescence anisotropy was measured on a microwell plate reader (Infinite M200Pro, Tecan) with filters for excitation at 485 nm and emission at 535 nm. The dissociation constant (Kd) was calculated using a following Eq. […] [L]T is the concentration of the total fluorescent ligand and [P]T the concentration of the protein. Native calprotectin is derived from granulocytes (kind gift from Thomas Vogl, Institute of Immunology, University of Muenster) and was purified as described in ref. [34]. The size and concentration was analyzed and compared to B-RCAL by standard SDS-PAGE.

Data set [3] addresses T3, calprotectin tetramer (recombinant B-RCAL) (Homo sapiens, UniProt P05109).
T3 sequence (P05109 with tags, fused parts or gaps): T1 sequence (P05109 with tags, fused parts or gaps)
Briefly: biochemical.
Method: SPR measurements were performed using a Biacore^TM 8 K instrument (GE Healthcare) using the Biacore^TM 8 K Control software. Recombinant calprotectin (B-RCAL) was diluted with 10 mM acetate buffer (pH 5.0) to reach a concentration of 5 μg/mL and immobilized on a CM5 series S chip using the standard amine coupling method in running buffer (10 mM HEPES pH 7.4, 150 mM NaCl, 2 mM CaCl2, and 0.005% v/v Tween-20) at 25 °C and the following procedure. At a flow of 10 μL/min, the following solutions were injected: 420 s 0.4 M EDC, 0.1 M NHS; 100 to 200 s protein; 500 s 1 M ethanolamine-HCl pH 8.5. Typical immobilization levels were 3000 resonance units (RUs). A reference cell was treated in the same way but without the injection of protein. A single concentration for each peptide (500 nM) was injected in a running buffer containing 0.5% (v/v) DMSO to measure the binding level. For the measurement of binding kinetics and dissociation constants, five serial dilutions (threefold) of peptides were prepared in running buffer containing 0.5% (v/v) DMSO and analyzed in single cycle kinetics mode with the contact and dissociation times of 90 s and 120 s, respectively. Data were analyzed using Biacore^TM 8 K Evaluation software.

The nature of data set [4]: Methionine oxidation of peptide upon storage in solution. In kind it is physicochemical.

What is called Kd is the concentration at which binding is half-saturated.

Read-outs that look alike come from different tables or passages of the source. Numbered stars: 1 amine (or outer) side, 2 acyl side, 3 side chain; on linkers, the order of the positions; unused ones are H or OH. Bridge positions count the residues as written; N and C are the ends. Peptide text beside a SMILES is read from it. * marks the point of attachment. X1 = O=C(O)c1cc(C(=O)*)ccc1-c1c2ccc(=O)cc-2oc2cc(O)ccc12; CH2COCH2 = O=C(C[*:1])C[*:2]

Regarding `CSCC[C@H](NC(=O)[C@@H]1CCCN1C(=O)[C@H](Cc1ccccc1)NC(=O)[C@H](C)NC(=O)[C@@H](NC(=O)[C@@H]1CSCC(=O)CSC[C@H](NC(=O)[C@H](CCCNC(=N)N)NC(=O)c2ccc3c(c2)C(=O)OC32c3ccc(O)cc3Oc3cc(O)ccc32)C(=O)N2CCC[C@H]2C(=O)N[C@@H](CCC(=O)O)C(=O)N1)C(C)C)C(=O)N[C@@H](Cc1ccccc1)C(=O)N[C@@H](CCC(N)=O)C(=O)N[C@H]1CSCC(=O)CSC[C@@H](C(=O)NCC(N)=O)NC(=O)[C@H](Cc2ccc(O)cc2)NC(=O)[C@H](Cc2c[nH]c3ccccc23)NC(=O)[C@H](Cc2c[nH]cn2)NC1=O` (single isomer, unassigned) [Peptide 3 Isomer 1], the dissociation constant Kd was 24 ± 10 nM in data set [1], 26 ± 2 nM in data set [2] and 51 nM in data set [3].

In the case of `CSCC[C@H](NC(=O)[C@@H]1CCCN1C(=O)[C@H](Cc1ccccc1)NC(=O)[C@H](C)NC(=O)[C@@H](NC(=O)[C@@H]1CSCC(=O)CSC[C@H](NC(=O)[C@H](CCCNC(=N)N)NC(=O)c2ccc(-c3c4ccc(=O)cc-4oc4cc(O)ccc34)c(C(=O)O)c2)C(=O)N2CCC[C@H]2C(=O)N[C@@H](CCC(=O)O)C(=O)N1)C(C)C)C(=O)N[C@@H](Cc1ccccc1)C(=O)N[C@@H](CCC(N)=O)C(=O)N[C@H]1CSCC(=O)CSC[C@@H](C(=O)NCC(N)=O)NC(=O)[C@H](Cc2ccc(O)cc2)NC(=O)[C@H](Cc2c[nH]c3ccccc23)NC(=O)[C@H](Cc2c[nH]cn2)NC1=O` [Peptide 3] (X1-RCPECVAFPMFQCHWYCG-NH2; linker 2-5, 13-17 via CH2COCH2), in data set [1] (FP, 20 nM peptide, 2 mM CaCl2, Rep 1), the Kd was found to be 20 nM. Also, the “FP increase upon binding to calprotectin” value in data set [1] (FP, 2 mM CaCl2) is listed as “around 50%”. The “oxidation upon storage in solution” value in data set [4] is listed as “a small quantity was oxidized”.
